Values joined by “and” are separate entries in the source; they are usually repeats but may differ in a detail not shown here. Equal values may be shown once.
Columns and labels:
Rhyzoctonia solani = assay: Cucumber damping-off control test; assay type: in vivo; conditions: 14 days after sowing
Method: Cucumber damping-off control test
Rhyzoctonia solani is cultured on barley medium at 28° C for 5 days. A field soil sample is packed into clay pots 9 cm in diameter, which are then sterilized with steam. The chaff inoculum is evenly worked into the cover soil of each pot to the depth of about 3 cm, at the rate of 2g./pot. The pots are kept in an incubation chamber at 28° C for 4 days and, then, transferred to a greenhouse.
As per Experiment 1, the drug is sprayed onto the soil surface at the rate of 30 ml./6 pots/group.
Healthy seeds of cucumber (variety: Yonyo) are sown by burial in the pots immediately after treatment, at the rate of 10 seeds/pot. The pots are then placed in a greenhouse at 32°-28° C.
14 days after sowing, the results are evaluated against the following coefficients of lesion and the degrees of damage are calculated.
Coefficients of lesion (I)
0.5 : Root hairs alone are slightly affected.
1 : Aerial portions near soil surface and roots affected.
2 : Early stage of damping-off.
3 : Affected at germination; growth inhibited.
Degree of damage (%) =(Σ(nI))/3 × N × 100 wherein n means the number of samples corresponding to each coefficient of lesion and N means the total number of plants.

Pellicularia sasakii [1] = assay: Abnormal branching of hyphal tips of Pellicularia sasakii (agar dilution bioassay); assay type: cell-based; conditions: for highest dilution factor that causes an abnormal branching at the hyphal tips of Pellicularia sasakii: 1 mg./ml. aqueous solution as stock solution; for dilution unit (maximum dilution which produces abnormal branching): aqueous solution containing 1000 γ/ml., 27° C for 40 hours
Method: Therefore, the bioassay of the antibiotics should be conducted in the following manner.
Pellicularia sasakii is used as the test organism employing plain agar as the assay medium. The test organism is cultivated on a potato (sucrose) agar slant for 2 to 5 days, and the resulting culture is used to inoculate at the center of a 9-cm Petri dish plate of modified Pfeffer's medium, which is then incubated at 27° C for 2 days. By the end of this period, the mycelium will have spread over the entire surface of the plate. The growth on the circumference about 3 to 3.5 cm in radius from the center is cut out with a cork borer and the agar disc thus obtained is used as the inoculum.
A serial dilution series of agar plants containing varying concentrations of the antibiotics is prepared in the same manner as a conventional agar dilution method.
A glass disc of 8 mm in diameter and about 0.2 mm thick, is placed in the center of each of the aforementioned dilution series of agar plates, and the agar disc inoculum is then placed on the glass disc. After incubation at 27° C for 40 hours, the result is evaluated. […] The term dilution unit means the value of maximum dilution which produces such abnormal branching.
Modified Pfeffer's medium, which is employed in this assay, has the following composition.
Before using the medium, the following vitamins are added in the specified amounts. (Weight per ml. of medium)
When a 1 mg./ml. aqueous solution of each of validamycins C, D, E and F and validoxylamines A and B is used as a stock solution, the highest dilution factor that causes an abnormal branching at the hyphal tips of Pellicularia sasakii is as follows.

Cladosporium fulvum = assay: Tomato leaf mold control test; assay type: in vivo; conditions: 50 ppm; 14 days after inoculation; inoculated 3 days before application
Method: Tomato leaf mold control test
Tomato plants (variety: ponterosa) are planted in 12 cm in diameter pots, one plant per pot. The seedlings 50 days after potting are used, 6 pots/group.
Applied at the rate of 100 ml./6 pots/group as per Experiment 1.
Pathogenic fungi Cladosporium fulvum is cultured on a potato infusion-sucrose plate at 20° C for 14 days, and a suspension of conidia (5×10^5 /ml.) is prepared from the culture.
The plants are spray-inoculated with the suspension 3 days before application of the drug, at the rate of 5 ml. per pot. The pots are kept in an inoculation chamber at 25° C for 24 hours, and, then they are transferred to a greenhouse.
14 days after inoculation, the specific ratio of the average area of lesion in the leaves is measured.

[2] = pKa' (neutralization, in aqueous solution); assay type: physicochemical
Text: 3. The elementary analysis, the molecular formulas as calculated therefrom, pKa' values, neutralization equivalents (molecular weight) and optical rotation values are given in Table 2.

useful plants = assay: Effect on useful plants (general statement); assay type: in vivo; conditions: even when applied in a high concentration
Oryzias latipes = assay: Acute toxicity for Oryzias latipes (median lethal dose, 48 hours); assay type: in vivo; conditions: leaving in water solution
Method: (§1) The toxicity of the antibiotics can be confirmed, for instance, by administering each of the validamycins C, D, E and F, and validoxylamines A and B, intravenously to mice and measuring the LD50 value, or by measuring the median lethal dose (48 hours) for Oryzias latipes.

Pellicularia sasakii [3] = assay: Rice sheath blight control test, preventive (prophylactic); assay type: in vivo; conditions: 10 days after application, untreated 34.4cm
Method: (§2) Rice sheath blight control test
(§3) Rice Plants (variety: Kinmaze) are planted in earthen pots 9 cm in diameter, 3 stocks per pot. Seedlings 80 days after potting are tested and 6 pots each of them are grouped.
(§4) Pathogenic fungi Pellicularia sasakii is cultivated on a plate of potato infusion-sugar-agar at 30°C for 48 hours, and its agar disc 10mm in diameter is cut out from a peripheral colony. The disc is inserted into the inside space of the leaf sheath near the soil surface, a disc per stem. The pots are kept in a PVC shelter at the temperature of 32°-25° C and the relative humidity of 100-70%. Inoculation is carried out immediately after the applied drug has been air-dried in the prophylactic test, and 3 days before application in the remedial test.
(§5) 10 days after application of the drug, the length of each stem from ground level to the upper edge of the lesion is directly measured.

bacteria and fungi = assay: Antimicrobial potency / growth inhibition in vitro; assay type: cell-based
Pellicularia sasakii [4] = assay: Rice sheath blight control test, remedial; assay type: in vivo; conditions: inoculation 3 days before application, untreated 34.4cm
Method: as §2, §3, §4, §5

plant diseases = assay: Control of plant diseases (general statement); assay type: in vivo; conditions: for controlling effect against plant diseases, for example, the sheath blight of the rice plant: application in vivo; for effectiveness against sheath blight and stem rot of rice plant, damping off and sclerotial blight of vegetables, flowering plants and lumber seedlings: in vivo
Solubilities = assay type: physicochemical; conditions: methanol
[5] = tested on: men and beasts, as well as to fish; assay: Harmlessness to men, beasts and fish (general statement); conditions: in vivo
Mice = assay: Acute toxicity in mice, intravenous injection; assay type: in vivo
Method: as §1

Row | Compound | Degree of damage (Rhyzoctonia solani; 5 ppm) | Degree of damage (Rhyzoctonia solani; 20 ppm) | Degree of damage (Rhyzoctonia solani; 80 ppm) | highest dilution factor that causes an abnormal branching at the hyphal tips of Pellicularia sasakii (Pellicularia sasakii [1]) | dilution unit (maximum dilution which produces abnormal branching) (Pellicularia sasakii [1]) | Specific area of lesion (Cladosporium fulvum) | pKa' [2] | effect on germination, growth, yield and other features of useful plants (useful plants) | TLm (Oryzias latipes) | Preventive effect (percent of the average length of lesion/stem per control untreated) (Pellicularia sasakii [3]; 3 ppm) | Preventive effect (percent of the average length of lesion/stem per control untreated) (Pellicularia sasakii [3]; 10 ppm) | Preventive effect (percent of the average length of lesion/stem per control untreated) (Pellicularia sasakii [3]; 30 ppm) | Preventive effect (percent of the average length of lesion/stem per control untreated) (Pellicularia sasakii [3]; 100 ppm) | Preventive effect (percent of the average length of lesion/stem per control untreated) (Pellicularia sasakii [3]; 300 ppm) | antimicrobial potency / growth inhibition of bacteria and fungi in vitro (bacteria and fungi) | Remedial effect (percent of the average length of lesion/stem per control untreated) (Pellicularia sasakii [4]; 3 ppm) | Remedial effect (percent of the average length of lesion/stem per control untreated) (Pellicularia sasakii [4]; 10 ppm) | Remedial effect (percent of the average length of lesion/stem per control untreated) (Pellicularia sasakii [4]; 30 ppm) | Remedial effect (percent of the average length of lesion/stem per control untreated) (Pellicularia sasakii [4]; 100 ppm) | Remedial effect (percent of the average length of lesion/stem per control untreated) (Pellicularia sasakii [4]; 300 ppm) | also measured
1 | O=[N+]([O-])c1c(Cl)c(Cl)c(Cl)c(Cl)c1Cl [Pentachloronitrobenzene, reference compound] | 100% | 100% | 100% | – | – | – | – | – | – | – | – | – | – | – | – | – | – | – | – | – | –
2 | OCC1CC(NC2C=C(COC3OC(CO)C(O)C(O)C3O)C(O)C(O)C2O)C(O)C(O)C1OC1OC(CO)C(O)C(O)C1O (stereo not shown) [Validamycin C] | 100% | 84% | 0% | 100 | 100 dilution unit/ml. | 18% | 6.0 ± 0.2 | do not substantially affect | > 1000 ppm | 46% | 34% | 4% | 1% | 0% | no antimicrobial potency | 68% | 22% | 12% | 10% | 7% | controlling effect against plant diseases, for example, the sheath blight of the rice plant (plant diseases): excellent controlling effect; effectiveness against sheath blight and stem rot of rice plant, damping off and sclerotial blight of vegetables, flowering plants and lumber seedlings (plant diseases): very effective; solubility in methanol (Solubilities): more sparingly soluble; harmfulness to men and beasts, as well as to fish [5]: substantially harmless; LD50 (Mice): > 2000 mg/kg
3 | OCC1=C[C@@H](N[C@@H]2C[C@@H](CO[C@@H]3O[C@H](CO)[C@@H](O)[C@H](O)[C@H]3O)[C@H](O)[C@@H](O)[C@H]2O)[C@H](O)[C@H](O)[C@H]1O [Validamycin D] | 100% | 93% | 0% | 10 | 10 dilution unit/ml. | 18% and 25% | 6.0 ± 0.2 | do not substantially affect | > 1000 ppm | 28% | 5% | 1% | 0% | 0% | no antimicrobial potency | – | 99% | 20% | 11% | 8% | controlling effect against plant diseases, for example, the sheath blight of the rice plant (plant diseases): excellent controlling effect; effectiveness against sheath blight and stem rot of rice plant, damping off and sclerotial blight of vegetables, flowering plants and lumber seedlings (plant diseases): very effective; solubility in methanol (Solubilities): soluble; harmfulness to men and beasts, as well as to fish [5]: substantially harmless; LD50 (Mice): > 2000 mg/kg
4 | OCC1=C[C@H](N[C@H]2C[C@H](CO)[C@@H](O[C@@H]3O[C@@H](CO)[C@@H](O[C@H]4O[C@@H](CO)[C@@H](O)[C@H](O)[C@H]4O)[C@H](O)[C@H]3O)[C@@H](O)[C@H]2O)[C@@H](O)[C@H](O)[C@H]1O [Validamycin E] | 10% | 0% | 0% | 70,000 - 80,000 | 80000 dilution unit/ml. | 2% | 6.1 ± 0.2 | do not substantially affect | > 1000 ppm | 3% | 2% | 0% | 0% | 0% | no antimicrobial potency | 14% | 12% | 11% | 5% | 3% | Remedial effect (percent of the average length of lesion/stem per control untreated) (Pellicularia sasakii [4]; 1 ppm): 41%; controlling effect against plant diseases, for example, the sheath blight of the rice plant (plant diseases): excellent controlling effect; effectiveness against sheath blight and stem rot of rice plant, damping off and sclerotial blight of vegetables, flowering plants and lumber seedlings (plant diseases): very effective; solubility in methanol (Solubilities): more sparingly soluble; harmfulness to men and beasts, as well as to fish [5]: substantially harmless; LD50 (Mice): > 2000 mg/kg
5 | Methyl arsonic acid ammonium complex salt [MAFA, reference compound] | – | – | – | – | – | – | – | – | – | 76% | 51% | 0% | 0% | 0% | – | 89% | 30% | 15% | 13% | 10% | –

Reference: patent publication US4089947A, “Antibiotic compositions containing validamycin compounds” (priority 1976, dated 1978)
